Source: patent US20090069320A1, “Substituted 4-Amino-Quinazoline Compounds with Metabotropic Glutamate Receptor Regulating Activity and Uses Thereof” (Gruenenthal GmbH, priority 2006, published 2009)

molecular target: T1, mGluR5 receptor (Sus scrofa, UniProt I3LUI7); experiment: [3H]-MPEP mGluR5 receptor binding assay (pig brain homogenate); details: 5 nM [3H]-MPEP, read-out: IC50 mGluR5 Receptor (pig) [^3H]-MPEP Bond
T1 construct: 450 μg of protein from brain homogenate with 5 nM ^3[H]-MPEP; from tissue; host or cells: pig brain halves without medulla, cerebellum and pons
T1 sequence (I3LUI7 19-1212): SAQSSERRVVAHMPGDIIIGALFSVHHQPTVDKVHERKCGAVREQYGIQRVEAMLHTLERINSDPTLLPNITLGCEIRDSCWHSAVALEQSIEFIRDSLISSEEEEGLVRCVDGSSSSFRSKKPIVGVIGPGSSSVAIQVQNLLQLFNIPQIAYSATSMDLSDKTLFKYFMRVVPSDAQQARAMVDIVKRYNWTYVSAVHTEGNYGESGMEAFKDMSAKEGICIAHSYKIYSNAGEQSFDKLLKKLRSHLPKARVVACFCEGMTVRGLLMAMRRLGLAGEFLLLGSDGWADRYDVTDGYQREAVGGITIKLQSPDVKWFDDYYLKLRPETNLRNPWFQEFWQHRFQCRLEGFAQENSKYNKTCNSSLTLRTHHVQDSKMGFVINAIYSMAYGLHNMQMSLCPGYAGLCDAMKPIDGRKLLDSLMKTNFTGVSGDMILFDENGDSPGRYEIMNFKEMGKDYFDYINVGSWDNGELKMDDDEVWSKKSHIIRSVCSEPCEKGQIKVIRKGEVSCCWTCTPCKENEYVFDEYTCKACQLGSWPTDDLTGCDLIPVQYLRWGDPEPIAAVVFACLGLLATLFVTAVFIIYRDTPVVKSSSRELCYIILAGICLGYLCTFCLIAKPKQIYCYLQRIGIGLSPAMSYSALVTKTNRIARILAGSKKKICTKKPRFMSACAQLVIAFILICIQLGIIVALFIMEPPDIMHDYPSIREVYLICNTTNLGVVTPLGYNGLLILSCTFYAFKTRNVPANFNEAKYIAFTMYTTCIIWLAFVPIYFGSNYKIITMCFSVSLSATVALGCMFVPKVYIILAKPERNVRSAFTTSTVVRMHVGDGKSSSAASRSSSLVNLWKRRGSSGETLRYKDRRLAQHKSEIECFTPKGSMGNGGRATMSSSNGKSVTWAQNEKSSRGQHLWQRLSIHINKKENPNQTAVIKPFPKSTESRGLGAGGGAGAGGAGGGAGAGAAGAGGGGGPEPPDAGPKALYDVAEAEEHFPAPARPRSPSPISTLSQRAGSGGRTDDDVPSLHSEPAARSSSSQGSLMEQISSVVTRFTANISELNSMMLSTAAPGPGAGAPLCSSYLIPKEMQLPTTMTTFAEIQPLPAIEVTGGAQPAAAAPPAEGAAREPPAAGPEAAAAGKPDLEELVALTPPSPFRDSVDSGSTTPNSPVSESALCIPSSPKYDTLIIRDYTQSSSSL
Procedure, shortened: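 Radioligand displacement of 5 nM [3H]-MPEP from pig brain homogenate (450 μg protein; medulla, cerebellum and pons removed) in 20 mM Hepes pH 8.0. Compounds were tested at 10 μM, incubated 60 min at room temperature, then filtered and counted by scintillation. Non-specific binding was defined with 10 μM MPEP.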

Structure (SMILES) | IC50
CS(=O)(=O)N(Cc1cccc(-c2cc(F)c3ncnc(NC4CC4)c3c2)c1)C1CC1 [Example 678, N-cyclopropyl-N-(3-(4-(cyclopropylamino)-8-fluoroquinazolin-6-yl)benzyl)methane sulfonamide] | 220 nM

same assay, conditions: 10 μM compound, 5 nM [3H]-MPEP

Structure (SMILES) | % Inhibition of mGluR5 Receptor (pig) [^3H]-MPEP Bond at 10 μM
COc1ccc(S(=O)(=O)N(Cc2cccc(-c3cc4c(NC5CC5)ncnc4cc3C)c2)C2CC2)cc1 [Example 659, N-cyclopropyl-N-(3-(4-(cyclopropylamino)-7-methylquinazolin-6-yl)benzyl)-4-methoxybenzole sulfonamide] | 86%
Cc1cc2ncnc(NC3CC3)c2cc1-c1cccc(CN(C2CC2)S(=O)(=O)c2ccc(Cl)cc2Cl)c1 [Example 667, 2,4-dichloro-N-cyclopropyl-N-(3-(4-(cyclopropylamino)-7-methylquinazolin-6-yl)benzyl)benzole sulfonamide] | 40%
Cc1cc2ncnc(NC3CC3)c2cc1-c1cccc(CN(C2CC2)S(=O)(=O)c2c(F)c(F)c(F)c(F)c2F)c1 [Example 675, N-cyclopropyl-N-(3-(4-(cyclopropylamino)-7-methylquinazolin-6-yl)benzyl)-2,3,4,5,6-pentafluorobenzole sulfonamide] | 48%
O=S(=O)(c1cccc(C(F)(F)F)c1)N(Cc1cccc(-c2cc(F)c3ncnc(NC4CC4)c3c2)c1)C1CC1 [Example 686, N-cyclopropyl-N-(3-(4-(cyclopropylamino)-8-fluoroquinazolin-6-yl)benzyl)-3-(trifluoromethyl)benzole sulfonamide] | 68%

same assay, conditions: 10 μM compound, 5 nM [3H]-MPEP, read-out: % Inhibition of mGluR5 Receptor (pig) [^3H]-MPEP Bond at 10 μM

Structure (SMILES) | inhibition at 10 µM
CC(=O)N(C)Cc1cc(-c2ccc3ncnc(NCc4ccccc4)c3c2)ccc1F [Example 595, N-(5-(4-(benzylamino)quinazolin-6-yl)-2-fluorobenzyl)-N-methylacetamide] | 53%
Cc1nc(NC2CC2)c2cc(-c3ccc(F)c(CN(C(=O)CCc4ccccc4)C4CC4)c3)ccc2n1 [Example 601, N-cyclopropyl-N-(5-(4-(cyclopropylamino)-2-methylquinazolin-6-yl)-2-fluorobenzyl)-3-phenylpropanamide] | 78%
Cc1nc(NC2CC2)c2cc(-c3ccc(F)c(CN(C(=O)c4ccccn4)C4CC4)c3)ccc2n1 [Example 604, N-cyclopropyl-N-(5-(4-(cyclopropylamino)-2-methylquinazolin-6-yl)-2-fluorobenzyl)picolinamide] | 41%
Cc1nc(C(=O)N(Cc2cc(-c3ccc4ncnc(NC5CC5)c4c3)ccc2F)C2CC2)cs1 [Example 605, N-cyclopropyl-N-(5-(4-(cyclopropylamino)quinazolin-6-yl)-2-fluorobenzyl)-2-methylthiazole-4-carboxamide] | 94%
Cc1nc(NC2CC2)c2cc(-c3ccc(F)c(CN(C(=O)c4ccncc4)C4CC4)c3)ccc2n1 [Example 608, N-cyclopropyl-N-(5-(4-(cyclopropylamino)-2-methylquinazolin-6-yl)-2-fluorobenzyl)isonicotinamide] | 36%
Cc1nc(C(=O)N(Cc2cccc(-c3ccc4ncnc(NCCc5ccccc5)c4c3)c2)C2CC2)cs1 [Example 609, N-cyclopropyl-2-methyl-N-(3-(4-(phenethylamino)quinazolin-6-yl)benzyl)thiazole-4-carboxamide] | 30%
O=C(c1ccc(F)cc1F)N(Cc1cccc(-c2cc(F)c3ncnc(NC4CC4)c3c2)c1)C1CC1 [Example 619, N-cyclopropyl-N-(3-(4-(cyclopropylamino)-8-fluoroquinazolin-6-yl)benzyl)-2,4-difluorobenzamide] | 98%
Cc1nc(NC2CC2)c2cc(-c3ccc(F)c(CN(C(=O)c4csc(C)n4)C4CC4)c3)ccc2n1 [Example 624, N-cyclopropyl-N-(5-(4-(cyclopropylamino)-2-methylquinazolin-6-yl)-2-fluorobenzyl)-2-methylthiazole-4-carboxamide] | 75%
Cc1nc(NC2CC2)c2cc(-c3ccc(F)c(CN(C(=O)C4CCCCC4)C4CC4)c3)ccc2n1 [Example 639, N-cyclopropyl-N-(5-(4-(cyclopropylamino)-2-methylquinazolin-6-yl)-2-fluorobenzyl)cyclohexane carboxamide] | 46%
Cc1nc(NC2CC2)c2cc(-c3ccc(F)c(CN(C(=O)Cc4ccccc4)C4CC4)c3)ccc2n1 [Example 644, N-cyclopropyl-N-(5-(4-(cyclopropylamino)-2-methylquinazolin-6-yl)-2-fluorobenzyl)-2-phenylacetamide] | 85%
CC(C)(C)C(=O)N(Cc1cc(-c2ccc3ncnc(NC4CC4)c3c2)ccc1F)C1CC1 [Example 645, N-cyclopropyl-N-(5-(4-(cyclopropylamino)quinazolin-6-yl)-2-fluorobenzyl)pivalamide] | 90%
Cc1cc2ncnc(NC3CC3)c2cc1-c1cccc(CN(C(=O)c2cccc(F)c2)C2CC2)c1 [Example 652, N-cyclopropyl-N-(3-(4-(cyclopropylamino)-7-methylquinazolin-6-yl)benzyl)-3-fluorobenzamide] | 93%
Cc1cc2ncnc(NC3CC3)c2cc1-c1cccc(CN(C(=O)C2CCCCC2)C2CC2)c1 [Example 653, N-cyclopropyl-N-(3-(4-(cyclopropylamino)-7-methylquinazolin-6-yl)benzyl)cyclohexane carboxamide] | 66%
CCCCC(=O)N(Cc1cccc(-c2cc(F)c3ncnc(NC4CC4)c3c2)c1)C1CC1 [Example 654, N-cyclopropyl-N-(3-(4-(cyclopropylamino)-8-fluoroquinazolin-6-yl)benzyl)pentanamide] | 82%
COc1ccc(CNc2ncnc3ccc(-c4cccc(CN(C(C)=O)C5CC5)c4)cc23)c(OC)c1 [Example 657, N-cyclopropyl-N-(3-(4-(2,4-dimethoxybenzylamino)quinazolin-6-yl)benzyl)acetamide] | 36%
Cc1cc2ncnc(NC3CC3)c2cc1-c1cccc(CN(C(=O)c2ccc(F)cc2F)C2CC2)c1 [Example 660, N-cyclopropyl-N-(3-(4-(cyclopropylamino)-7-methylquinazolin-6-yl)benzyl)-2,4-difluorobenzamide] | 94%
Cc1cc2ncnc(NC3CC3)c2cc1-c1cccc(CN(C(=O)Cc2ccccc2)C2CC2)c1 [Example 661, N-cyclopropyl-N-(3-(4-(cyclopropylamino)-7-methylquinazolin-6-yl)benzyl)-2-phenylacetamide] | 89%
O=C(C1CCCCC1)N(Cc1cccc(-c2cc(F)c3ncnc(NC4CC4)c3c2)c1)C1CC1 [Example 662, N-cyclopropyl-N-(3-(4-(cyclopropylamino)-8-fluoroquinazolin-6-yl)benzyl)cyclohexane carboxamide] | 54%
Cc1nc(NC2CC2)c2cc(-c3cccc(CN(C(=O)c4ccccc4C(F)(F)F)C4CC4)c3)ccc2n1 [Example 666, N-cyclopropyl-N-(3-(4-(cyclopropylamino)-2-methylquinazolin-6-yl)benzyl)-2-(trifluoromethyl)benzamide] | 43%
Cc1cc2ncnc(NC3CC3)c2cc1-c1cccc(CN(C(=O)c2ccc(C(F)(F)F)cc2F)C2CC2)c1 [Example 668, N-cyclopropyl-N-(3-(4-(cyclopropylamino)-7-methylquinazolin-6-yl)benzyl)-2-fluoro-4-(trifluoromethyl)benzamide] | 88%
Cc1cc2ncnc(NC3CC3)c2cc1-c1cccc(CN(C(=O)CCc2ccccc2)C2CC2)c1 [Example 669, N-cyclopropyl-N-(3-(4-(cyclopropylamino)-7-methylquinazolin-6-yl)benzyl)-3-phenylpropanamide] | 77%
O=C(Cc1ccccc1)N(Cc1cccc(-c2cc(F)c3ncnc(NC4CC4)c3c2)c1)C1CC1 [Example 670, N-cyclopropyl-N-(3-(4-(cyclopropylamino)-8-fluoroquinazolin-6-yl)benzyl)-2-phenylacetamide] | 79%
CNc1ncnc2ccc(-c3cccc(CN(C(=O)c4ccno4)c4ccccc4F)c3)cc12 [Example 671, N-(2-fluorophenyl)-N-(3-(4-(methylamino)quinazolin-6-yl)benzyl)isoxazole-5-carboxamide] | 40%
Cc1cc2ncnc(NC3CC3)c2cc1-c1cccc(CN(C(=O)c2cccc(C(F)(F)F)c2)C2CC2)c1 [Example 676, N-cyclopropyl-N-(3-(4-(cyclopropylamino)-7-methylquinazolin-6-yl)benzyl)-3-(trifluoromethyl)benzamide] | 75%
O=C(c1ccco1)N(Cc1cccc(-c2cc(F)c3ncnc(NC4CC4)c3c2)c1)C1CC1 [Example 677, N-cyclopropyl-N-(3-(4-(cyclopropylamino)-8-fluoroquinazolin-6-yl)benzyl)furan-2-carboxamide] | 93%
Cc1cc2ncnc(NC3CC3)c2cc1-c1cccc(CN(C2CC2)S(=O)(=O)c2cccc3cccnc23)c1 [Example 683, N-cyclopropyl-N-(3-(4-(cyclopropylamino)-7-methylquinazolin-6-yl)benzyl)quinoline-8-sulfonamide] | 31%
Cc1cc2ncnc(NC3CC3)c2cc1-c1cccc(CN(C(=O)c2ccccc2C(F)(F)F)C2CC2)c1 [Example 684, N-cyclopropyl-N-(3-(4-(cyclopropylamino)-7-methylquinazolin-6-yl)benzyl)-2-(trifluoromethyl)benzamide] | 96%
O=C(c1cccs1)N(Cc1cccc(-c2cc(F)c3ncnc(NC4CC4)c3c2)c1)C1CC1 [Example 685, N-cyclopropyl-N-(3-(4-(cyclopropylamino)-8-fluoroquinazolin-6-yl)benzyl)thiophene-2-carboxamide] | 81%
